Experimental data: ChEMBL document CHEMBL1681664, “Specific biotinylation of IMP dehydrogenase” (Bioorg Med Chem Lett, 2011)
Active and inactive are the calls of the source. The rule behind the calls is not given here.

Experiments:
[1] = molecular target: Inosine-5'-monophosphate dehydrogenase 2 (Homo sapiens) (UniProt P12268); assay: Ratio of Kinact to Ki for human IMPDH2 at 25 degC
Escherichia coli [2] = assay: Ratio of Kinact to Ki for Escherichia coli IMPDH at 25 degC
[3] = molecular target: Inosine-5'-monophosphate dehydrogenase 2 (Homo sapiens) (UniProt P12268); assay: Inhibition of human IMPDH2 at 200 uM by SDS-PAGE in presence of 6 mM dithiothreitol
Escherichia coli [4] = assay: Inhibition of recombinant Escherichia coli IMPDH by SDS-PAGE
[5] = molecular target: Inosine-5'-monophosphate dehydrogenase 2 (Homo sapiens) (UniProt P12268); assay: Inhibition of human IMPDH2 at 200 uM by SDS-PAGE
[6] = molecular target: Inosine-5'-monophosphate dehydrogenase 2 (Homo sapiens) (UniProt P12268); assay: Ratio of Kinact to Ki for human IMPDH2 at 37 degC
Escherichia coli [7] = assay: Inhibition of GMPR in wild type Escherichia coli MG1655 cell lysate by SDS-PAGE
Escherichia coli [8] = assay: Inhibition of IMPDH in wild type Escherichia coli MG1655 cell lysate by SDS-PAGE
Escherichia coli [9] = assay: Inhibition of recombinant Escherichia coli IMPDH with active site Cys replaced with Ala mutant by SDS-PAGE
[10] = molecular target: Inosine-5'-monophosphate dehydrogenase 2 (Homo sapiens) (UniProt P12268); assay: Inhibition of human IMPDH2 at 100 to 500 uM at pH 8

Chain of Inosine-5'-monophosphate dehydrogenase 2 (Homo sapiens) (P12268 2-514 limits assumed): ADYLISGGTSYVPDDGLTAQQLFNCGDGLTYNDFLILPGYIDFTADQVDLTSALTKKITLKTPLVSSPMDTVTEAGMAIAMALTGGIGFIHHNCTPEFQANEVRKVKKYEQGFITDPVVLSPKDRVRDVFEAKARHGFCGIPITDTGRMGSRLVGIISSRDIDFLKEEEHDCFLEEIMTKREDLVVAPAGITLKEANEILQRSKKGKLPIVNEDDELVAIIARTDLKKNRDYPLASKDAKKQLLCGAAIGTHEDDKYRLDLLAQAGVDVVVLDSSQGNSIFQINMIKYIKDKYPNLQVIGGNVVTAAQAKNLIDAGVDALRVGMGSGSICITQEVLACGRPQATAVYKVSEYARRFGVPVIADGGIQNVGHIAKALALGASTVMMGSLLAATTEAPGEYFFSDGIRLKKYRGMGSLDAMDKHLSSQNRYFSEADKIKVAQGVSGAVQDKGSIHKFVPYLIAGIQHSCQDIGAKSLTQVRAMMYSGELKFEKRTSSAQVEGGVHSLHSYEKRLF

Ratio [1] [M⁻¹ s⁻¹]	Ratio (Escherichia coli [2]) [M⁻¹ s⁻¹]	inhibition [3]	inhibition (Escherichia coli [4])	inhibition [5]	Ratio [6] [M⁻¹ s⁻¹]	inhibition (Escherichia coli [7])	inhibition (Escherichia coli [8])	inhibition (Escherichia coli [9])	inhibition [10]	Structure (SMILES)
0.9	120	inactive	–	–	–	–	–	–	–	O=P(O)(O)OC[C@H]1O[C@@H](n2cnc3c(Cl)ncnc32)[C@H](O)[C@@H]1O
–	130	–	Active	Active	1.4	Active	Active	inactive	Active	O=C(CCCC[C@@H]1SC[C@@H]2NC(=O)N[C@@H]21)NCCCO[C@@H]1[C@H](O)[C@@H](COP(=O)(O)O)O[C@H]1n1cnc2c(Cl)ncnc21
